How the values were obtained:
Zymoseptoria tritici = experiment: Wheat leaf blight control efficacy test; type: in vivo; details: 12.5 ppm, as Test Example 4
Botrytis cinerea = experiment: Cucumber gray mold control efficacy test; type: in vivo; details: as Test Example 2

## CON(C(=O)c1cn(C)nc1C(F)F)C(C)Cc1ccc(C#CCOCc2ccccc2)cc1Cl (stereo not drawn) [Compound I-18]
Zymoseptoria tritici
  control efficacy: 100%

## CON(C(=O)c1cn(C)nc1C(F)F)C(C)Cc1c(Cl)cc(Cl)cc1Cl (stereo not drawn) [Control compound C]
Botrytis cinerea; 12.5 ppm
  control efficacy: 65%
Botrytis cinerea; 100 ppm
  control efficacy: 97%

— patent EP4800008A1, “PYRAZOLE DERIVATIVE, OR ACCEPTABLE SALT THEREOF OR N-OXIDE THEREOF, AGRICULTURAL AND HORTICULTURAL CHEMICAL, AND INDUSTRIAL MATERIAL PROTECTANT” (Kureha Corporation, priority 2023, dated 2025)
